Laboratory results from patent publication US20050064384A1, “Recruitment of mst1 or mst2 protein kinase to induce apoptosis in eukaryotic cells” (priority 2001, published 2005).
“Also recorded” adds a separate entry of the source. Peptide text beside a SMILES is read from it. * marks the point of attachment. Cbz = O=C(OCc1ccccc1)*; CH2F = FC*

Assays:
Type in all cases: cell-based
HEK293 cells = experiment: Apoptosis assay in HEK293 cells (trypan blue exclusion); details: incubation with zVAD-FMK, data not shown
Experimental: Transient transfections were performed using LIPOFECTAMINE™ transfection reagent (Gibco BRL, Gaithersburg, Md.) according to the manufacturer's instructions. […] Each well was transfected with a total of 0.5 μg DNA and 3.5 μl LIPOFECTAMINE™ transfection reagent.

NIH3T3 cells = experiment: Annexin V labeling in NIH 3T3 cells (FACS); details: zVAD-FMK 42 μM added at the time of transfection; cells harvested 24 hours later; NORECAAX + wild type MST1, or myrMST1
Experimental: Annexin V labeling in NIH 3T3 cells. The assay was as described in (van Engeland et al., Cytometry, 24: 131-139 (1996)) with some modifications. NIH 3T3 cells were plated at 3-4×10^5 per well in a 6-well plate the day before transfection. Cells were transfected in duplicate with 6 μg of DNA and 10 μl of LIPOFECTAMINE™ 2000 transfection reagent (GIBCO BRL, Gaithersburg, Md.) in the presence of 10% serum, as recommended by manufacturer, and left for 19-23 hours. In some experiments, Z-Vad-FMK (Calbiochem) was added to 42 μM (final concentration) at the time of transfection. Rat annexinV, purified from liver or recombinant, labeled with Alexa 488 dye was added to the culture media to 1 mg/ml and cells were incubated 5 minutes at 37° C., followed by 25 minutes at room temperature in the dark. Media with floating cells was transferred to 5 ml centrifuge tubes on ice; the plates were washed twice with 1 ml of HBS (20 mM HEPES, pH 7.4, 150 mM NaCl, 2.5 mM CaCl2) and the washes were added to the tubes with media. Floating cells were pelleted, resuspended in 3 ml of HBS and pelleted again. Adherent cells were scraped into 1 ml HBS, pooled with floating cells from the same dish and resuspended by vortexing. […] Cells were analyzed by Coulter EPICS V XL flow cytometer; the percent of annexinV-positive cells was calculated by the cytometer software. […]

Jurkat cells = experiment: Jurkat cell survival by flow cytometry (GFP positive live cells); details: incubation with zVAD-FMK, data not shown
Experimental: The Jurkat/T antigen cell line was cultured in complete IMDM medium supplemented with 10% FCS, 2 mM glutamine and gentamycin (50 μg/ml) in a humidified incubator with 5% CO2 in air at 37° C. The cells were kept at a density of 0.5-1×10^6/ml. Aliquots containing 3×10^6 Jurkat cells were electorporated at 250 volts and 960 μF with mixtures of plasmids as indicated in the Figures together with 1 μg of cDNA encoding GFP. Twenty-four hours post transfection, cell survival was analyzed by flow cytometry using a previously optimized program to measure percentage of live cells that are GFP positive present in forward scatter/side scatter gate in each experimental condition (Vermes et al., J. Immunol. Meth., 243: 167-190 (2000)). The vital GFP positive cells were selected on the basis of unchanged scatter signals when compared to untransfected cells and the apoptotic cell population with decreased FS and increased SS was excluded from the analysis. The data was expressed as “percent cells surviving” with vector controls set to 100%.

SMILES: COC(=O)C[C@H](NC(=O)[C@H](C)NC(=O)[C@@H](NC(=O)OCc1ccccc1)C(C)C)C(=O)CF [zVAD-FMK] (Cbz-Val-Ala-Asp(OMe)-CH2F)
- suppression of killing caused by low doses of NORECAAX with MST1 (HEK293 cells): suppressed
- suppression of NORECAAX and MST1-induced annexin V binding (staining) (NIH3T3 cells): suppresses; also recorded: fully suppressed
- suppression of killing caused by low doses of NORECAAX with MST1 (Jurkat cells): suppressed
